Here are results for 19 compounds from patent publication US9227971B2, “Pyrazolo[1,5-a]pyrimidine compounds as mTOR inhibitors” (Merck Sharp & Dohme Corp., priority 2010, dated 2016).

Where two headings read alike, the source gives them in different places.

Assay [1] relates to phosphorylated AKT Ser473 (pAKT S473), mTORC2 activity, PC3 cells. Kind of assay: mTOR target engagement assay, immunofluorescent cell-based, pAKT S473 readout (mTORC2 activity). In short, it runs like this:
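After blocking, cells were stained overnight at 4 °C with anti-pAKT S473 antibody, then a fluorescent secondary; inhibition was read as reduced fluorescence intensity.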

For assay [2], the system named is phosphorylated 4E-BP1 Thr37/46 (p4E-BP1 Thr37/46), mTORC1 activity, PC3 cells. Kind of assay: mTOR target engagement assay, immunofluorescent cell-based, p4E-BP1 Thr37/46 readout (mTORC1 activity). Conditions: read-out: p4E-BP1 Thr37/46 IC50. In short, it runs like this:
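Cell-based immunofluorescence in PC3 cells: serially diluted compounds (0.25% DMSO, 5% FBS) applied for ninety minutes at 37° C before fixation and overnight 4° C staining of p4E-BP1 Thr37/46. Untreated DMSO wells set maximal phosphorylation; IC50 obtained by logistic fitting.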

[3] abbreviates: Homo sapiens, PC-3, Table 3-1, PC3 cells.
[4] abbreviates: Homo sapiens, PC-3, PC3 cells, compound treatment ninety minutes at 37° C.
The mark [5] stands for this setting: Homo sapiens, PC-3, Table 7-2, PC3 cells.

For the compound `CS(=O)(=O)c1c([C@@H]2C[C@H]3CC[C@@H](C2)N3C(=O)c2cc(N)n[nH]2)nc2c(-c3ccc(-c4ccc(F)cc4F)nc3)cnn2c1N` [Compound 3.129, (3-amino-1H-pyrazol-5-yl)((1R,3s,5S)-3-(7-amino-3-(6-(2,4-difluorophenyl)pyridin-3-yl)-6-(methylsulfonyl)pyrazolo[1,5-a]pyrimidin-5-yl)-8-azabicyclo[3.2.1]octan-8-yl)methanone], the IC50 in assay [1] (setting [3]) and in assay [2] (setting [3]) was 1 to 100 nM each time.

`CC(=O)c1c([C@@H]2C[C@H]3CC[C@@H](C2)N3C(=O)c2nnc[nH]2)nc2c(-c3cnc(-c4ccn(C)n4)c(F)c3)cnn2c1N` [Compound 1.1.112, 1-(5-((1R,3s,5S)-8-(4H-1,2,4-triazole-3-carbonyl)-8-azabicyclo[3.2.1]octan-3-yl)-7-amino-3-(5-fluoro-6-(1-methyl-1H-pyrazol-3-yl)pyridin-3-yl)pyrazolo[1,5-a]pyrimidin-6-yl)ethanone]: the IC50 in assay [1] (setting [4]) and in assay [2] (setting [4]) was 1000 to 10000 nM in each case.

For `CCOc1ccc(-c2ccc(-c3cnn4c(N)c(S(C)(=O)=O)c([C@@H]5C[C@H]6CC[C@@H](C5)N6C(=O)c5nnc[nH]5)nc34)cn2)cc1` [Compound 3.60, ((1R,3s,5S)-3-(7-amino-3-(6-(4-ethoxyphenyl)pyridin-3-yl)-6-(methylsulfonyl)pyrazolo[1,5-a]pyrimidin-5-yl)-8-azabicyclo[3.2.1]octan-8-yl)(4H-1,2,4-triazol-3-yl)methanone], the IC50 in assay [1] (setting [3]) and in assay [2] (setting [3]) was 1 to 100 nM in each case.

For the compound `CS(=O)(=O)c1c([C@@H]2C[C@H]3CC[C@@H](C2)N3C(=O)c2nnc[nH]2)nc2c(-c3ccc(-c4ccc(F)c(F)c4)nc3)cnn2c1N` [Compound 3.44, ((1R,3s,5S)-3-(7-amino-3-(6-(3,4-difluorophenyl)pyridin-3-yl)-6-(methylsulfonyl)pyrazolo[1,5-a]pyrimidin-5-yl)-8-azabicyclo[3.2.1]octan-8-yl)(4H-1,2,4-triazol-3-yl)methanone], the IC50 in assay [1] (setting [3]) and in assay [2] (setting [3]) was 1 to 100 nM each time.

For `CS(=O)(=O)c1c([C@H]2CC3CC[C@H](C2)N3C(=O)c2cn[nH]n2)nc2c(-c3cnc4ccc(F)cc4c3)cnn2c1N` [Compound 3.177, ((1R,3s,5S)-3-(7-amino-3-(6-fluoroquinolin-3-yl)-6-(methylsulfonyl)pyrazolo[1,5-a]pyrimidin-5-yl)-8-azabicyclo[3.2.1]octan-8-yl)(2H-1,2,3-triazol-4-yl)methanone], the IC50 in assay [1] (setting [3]) and in assay [2] (setting [3]) was 100 to 1000 nM throughout.

On to `NC(=O)c1c([C@@H]2C[C@H]3CC[C@@H](C2)N3C(=O)c2nc[nH]n2)nc2c(-c3ccc(-c4ccccc4)nc3)cnn2c1N` [Compound 1.1.25, 5-((1R,3s,5S)-8-(1H-1,2,4-triazole-3-carbonyl)-8-azabicyclo[3.2.1]octan-3-yl)-7-amino-3-(6-phenylpyridin-3-yl)pyrazolo[1,5-a]pyrimidine-6-carboxamide], for which the IC50 in assay [1] (setting [4]) and in assay [2] (setting [4]) was 1 to 100 nM in each case.

With `CC(=O)c1c([C@@H]2C[C@H]3CC[C@@H](C2)N3C(N)=O)nc2c(-c3ccc(-c4ccc(F)cc4)nc3)cnn2c1N` [Compound 1.11..170, (1R,3s,5S)-3-(6-acetyl-7-amino-3-(6-(4-fluorophenyl)pyridin-3-yl)pyrazolo[1,5-a]pyrimidin-5-yl)-8-azabicyclo[3.2.1]octane-8-carboxamide], the IC50 in assay [1] (setting [4]) and in assay [2] (setting [4]) was 1 to 100 nM each time.

As for `Cc1nc(N)ncc1C(=O)N1[C@@H]2CC[C@H]1C[C@H](c1nc3c(-c4ccc(-c5ccccc5)nc4)cnn3c(N)c1S(C)(=O)=O)C2` [Compound 3.137, (2-amino-4-methylpyrimidin-5-yl)((1R,3a,5S)-3-(7-amino-6-(methylsulfonyl)-3-(6-phenylpyridin-3-yl)pyrazolo[1,5-a]pyrimidin-5-yl)-8-azabicyclo[3.2.1]octan-8-yl)methanone], the IC50 in assay [1] (setting [3]) and in assay [2] (setting [3]) was 1000 to 10000 nM in each case.

Regarding `CC(=O)c1c([C@@H]2C[C@H]3CC[C@@H](C2)N3C(=O)c2nnc[nH]2)nc2c(-c3cnn(-c4ccc(F)cc4)c3)cnn2c1N` [Compound 1.1.123, 1-(5-((1R,3s,5S)-8-(4H-1,2,4-triazole-3-carbonyl)-8-azabicyclo[3.2.1]octan-3-yl)-7-amino-3-(1-(4-fluorophenyl)-1H-pyrazol-4-yl)pyrazolo[1,5-a]pyrimidin-6-yl)ethanone], the results for the IC50 in assay [1] (setting [4]) and in assay [2] (setting [4]) were 100 to 1000 nM and 1000 to 10000 nM, respectively.

With `CS(=O)(=O)c1c([C@@H]2C[C@H]3CC[C@@H](C2)N3C(=O)c2cc(N)n[nH]2)nc2c(-c3ccc(-c4ccc(F)cc4)nc3)cnn2c1N` [Compound 3.120, (3-amino-1H-pyrazol-5-yl)((1R,3s,5S)-3-(7-amino-3-(6-(4-fluorophenyl)pyridin-3-yl)-6-(methylsulfonyl)pyrazolo[1,5-a]pyrimidin-5-yl)-8-azabicyclo[3.2.1]octan-8-yl)methanone], the IC50 lay in the range of 1 to 100 nM in assay [1] (Table 3-1, PC3 cells) and 1 to 100 nM in assay [2] (Table 3-1, PC3 cells).

`CS(=O)(=O)c1c([C@@H]2C[C@H]3CC[C@@H](C2)N3C(=O)[C@@H]2CCCN2)nc2c(-c3ccc(-c4ccccc4)nc3)cnn2c1N` [Compound 3.206, ((1R,3R,5S)-3-(7-amino-6-(methylsulfonyl)-3-(6-phenylpyridin-3-yl)pyrazolo[1,5-a]pyrimidin-5-yl)-8-azabicyclo[3.2.1]octan-8-yl)((S)-pyrrolidin-2-yl)methanone]: the IC50 in assay [1] (setting [3]) and in assay [2] (setting [3]) was 1000 to 10000 nM throughout.

With `Cc1cnc(-c2ccc(-c3cnn4c(N)c(S(C)(=O)=O)c([C@@H]5C[C@H]6CC[C@@H](C5)N6C(=O)CO)nc34)cn2)s1` [Compound 3.185, 1-((1R,3a,5S)-3-(7-amino-6-(methylsulfonyl)-3-(6-(5-methylthiazol-2-yl)pyridin-3-yl)pyrazolo[1,5-a]pyrimidin-5-yl)-8-azabicyclo[3.2.1]octan-8-yl)-2-hydroxyethanone], the IC50 in assay [1] (setting [3]) and in assay [2] (setting [3]) was 100 to 1000 nM in each case.

As for `CS(=O)(=O)c1c([C@@H]2C[C@H]3CC[C@@H](C2)N3C(=O)c2nnc[nH]2)nc2c(-c3ccc(-c4ccc(F)cc4F)nc3)cnn2c1N` [Compound 3.108, ((1R,3s,5S)-3-(7-amino-3-(6-(2,4-difluorophenyl)pyridin-3-yl)-6-(methylsulfonyl)pyrazolo[1,5-a]pyrimidin-5-yl)-8-azabicyclo[3.2.1]octan-8-yl)(4H-1,2,4-triazol-3-yl)methanone], the IC50 in assay [1] (setting [3]) and in assay [2] (setting [3]) was 1 to 100 nM in each case.

As for `Cc1nnc(C(=O)N2[C@@H]3CC[C@H]2C[C@H](c2nc4c(-c5ccc(-c6ccc(F)cc6)nc5)cnn4c(N)c2S(C)(=O)=O)C3)[nH]1` [Compound 3.119, ((1R,3s,5S)-3-(7-amino-3-(6-(4-fuorophenyl)pyridin-3-yl)-6-(methylsulfonyl)pyrazolo[1,5-a]pyrimidin-5-yl)-8-azabicyclo[3.2.1]octan-8-yl)(5-methyl-4H-1,2,4-triazol-3-yl)methanone], the IC50 lay in the range of 1 to 100 nM in assay [1] (Table 3-1, PC3 cells) and 1 to 100 nM in assay [2] (Table 3-1, PC3 cells).

`CC(=O)c1c([C@@H]2C[C@H]3CC[C@@H](C2)N3C(=O)CO)nc2c(-c3cnc(-c4ccccc4)c(O)c3)cnn2c1N` [Compound 1.1.32, 1-((1R,3s,5S)-3-(6-acetyl-7-amino-3-(5-hydroxy-6-phenylpyridin-3-yl)pyrazolo[1,5-a]pyrimidin-5-yl)-8-azabicyclo[3.2.1]octan-8-yl)-2-hydroxyethanone]: the IC50 in assay [1] (setting [4]) and in assay [2] (setting [4]) was 1000 to 10000 nM throughout.

For the compound `CS(=O)(=O)c1c([C@@H]2C[C@H]3CC[C@@H](C2)N3C(=O)c2ncc[nH]2)nc2c(-c3ccc(-c4ccccc4)nc3)cnn2c1N` [Compound 3.78, ((1R,3s,5S)-3-(7-amino-6-(methylsulfonyl)-3-(6-phenylpyridin-3-yl)pyrazolo[1,5-a]pyrimidin-5-yl)-8-azabicyclo[3.2.1]octan-8-yl)(1H-imidazol-2-yl)methanone], the IC50 in assay [1] (setting [3]) and in assay [2] (setting [3]) was 100 to 1000 nM throughout.

Consider `CS(=O)(=O)c1c([C@@H]2C[C@H]3CC[C@@H](C2)N3C(N)=O)nc2c(-c3ccc(-c4ccc(F)cc4F)nc3)cnn2c1N` [Compound 3.125, (1R,3s,5S)-3-(7-amino-3-(6-(2,4-difluorophenyl)pyridin-3-yl)-6-(methylsulfonyl)pyrazolo[1,5-a]pyrimidin-5-yl)-8-azabicyclo[3.2.1]octane-8-carboxamide], for which the IC50 lay within 1 to 100 nM in assay [1] (setting [3]) and 100 to 1000 nM in assay [2] (setting [3]).

In the case of `CC(C)(O)c1ccc(-c2cnn3c(N)c(S(C)(=O)=O)c([C@@H]4C[C@H]5CC[C@@H](C4)N5C(=O)c4nnc[nH]4)nc23)cn1` [Compound 7.27, ((1R,3s,5S)-3-(7-amino-3-(6-(2-hydroxypropan-2-yl)pyridin-3-yl)-6-(methylsulfonyl)pyrazolo[1,5-a]pyrimidin-5-yl)-8-azabicyclo[3.2.1]octan-8-yl)(1H-1,2,4-triazol-5-yl)methanone], the IC50 in assay [1] (setting [5]) and in assay [2] (setting [5]) was 1 to 100 nM each time.

In the case of `CC(=O)c1c([C@@H]2C[C@H]3CC[C@@H](C2)N3C(=O)c2nnc[nH]2)nc2c(-c3ccc(-c4cnn(C)c4)nc3)cnn2c1N` [Compound 1.1.149, 1-(5-((1R,3s,5S)-8-(4H-1,2,4-triazole-3-carbonyl)-8-azabicyclo[3.2.1]octan-3-yl)-7-amino-3-(6-(1-methyl-1H-pyrazol-4-yl)pyridin-3-yl)pyrazolo[1,5-a]pyrimidin-6-yl)ethanone], the IC50 in assay [1] (setting [4]) and in assay [2] (setting [4]) was 1 to 100 nM throughout.
